Reference: PubChem BioAssay AID248 (DTP/NCI, 2004)
Several values for one entry are separate records, joined by “and”; a condition that tells them apart may be missing. Equal entries are not always repeated. Toxic doses and inconclusive results are not listed. Rule as the data show it: active = T/C of 150% or more; inactive = T/C below 125%.

Test system: L1210 leukemia ip in BDF1 mice, survival T/C
Test: NCI In Vivo Anticancer Drug Screen. Data for tumor model L1210 Leukemia (intraperitoneal) in B6D2F1 (BDF1) mice
Conditions: endpoint: mean survival time, higher = longer survival
In short: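 Tumor cells were implanted, animals were treated, and survival was followed. The result divides the treated measurement by the vehicle-control measurement.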

[1] = dose: 100.0 mg/kg/injection, schedule: Q01DX001 (ip), vehicle: saline
[2] = dose: 200.0 mg/kg/injection, schedule: Q01DX001 (ip), vehicle: saline
[3] = dose: 400.0 mg/kg/injection, schedule: Q01DX001 (ip), vehicle: saline
[4] = dose: 100.0 mg/kg/injection, schedule: Q04DX002 (ip), vehicle: Klucel (hydroxypropylcellulose) (HPC)
[5] = dose: 200.0 mg/kg/injection, schedule: Q04DX002 (ip), vehicle: Klucel (hydroxypropylcellulose) (HPC)
[6] = dose: 100.0 mg/kg/injection, schedule: Q01DX001 (ip), vehicle: saline with Tween-80
[7] = dose: 200.0 mg/kg/injection, schedule: Q01DX001 (ip), vehicle: saline with Tween-80
[8] = dose: 100.0 mg/kg/injection, schedule: Q04DX003 (ip), vehicle: Klucel (hydroxypropylcellulose) (HPC)
[9] = dose: 200.0 mg/kg/injection, schedule: Q04DX003 (ip), vehicle: Klucel (hydroxypropylcellulose) (HPC)
[10] = dose: 100.0 mg/kg/injection, schedule: Q01DX009 (ip), vehicle: saline with Tween-80
[11] = dose: 400.0 mg/kg/injection, schedule: Q04DX002 (ip), vehicle: Klucel (hydroxypropylcellulose) (HPC)

Measured: T/C

c1ccc(CSCCSCc2ccccc2)cc1
inactive: dose: 87.5 mg/kg/injection, schedule: Q01DX009 (ip), vehicle: other 95 % of control | dose: 175.0 mg/kg/injection, schedule: Q01DX009 (ip), vehicle: other 101 % of control | dose: 350.0 mg/kg/injection, schedule: Q01DX009 (ip), vehicle: other 104 % of control

CCCC(C(O)c1ccc(OC)cc1)C(O)(C(F)(F)F)C(F)(F)F (centres undefined)
inactive: dose: 100.0 mg/kg/injection, schedule: Q04DX003 (ip), vehicle: other 97 % of control | dose: 200.0 mg/kg/injection, schedule: Q04DX003 (ip), vehicle: other 92 % of control | dose: 400.0 mg/kg/injection, schedule: Q04DX003 (ip), vehicle: other 92 % of control

COC(=O)C12CCC1(Cl)CC2 (centres undefined)
inactive: [1] 94 % of control | [2] 95 % of control | [3] 100 % of control

CONC(N)=O
inactive: dose: 100.0 mg/kg/injection, schedule: Q01DX Z (ip), vehicle: carboxymethylcellulose (CMC) 100 % of control | dose: 200.0 mg/kg/injection, schedule: Q01DX Z (ip), vehicle: carboxymethylcellulose (CMC) 98 % of control | dose: 350.0 mg/kg/injection, schedule: Q01DX Z (ip), vehicle: carboxymethylcellulose (CMC) 100 % of control and 101 % of control | dose: 500.0 mg/kg/injection, schedule: Q01DX Z (ip), vehicle: carboxymethylcellulose (CMC) 98 % of control | dose: 750.0 mg/kg/injection, schedule: Q01DX Z (ip), vehicle: carboxymethylcellulose (CMC) 98 % of control

CCC(C(=O)O)=C1CCCCC1
inactive: [1] 95 % of control | [2] 95 % of control | [3] 103 % of control

CCS(=O)(=O)/C=C/c1ccc2ccccc2n1
inactive: [4] 104 % of control | [5] 100 % of control

CCCCCCCCCCCCC1CC2CCCCC2C2CCCCC12 (centres undefined)
inactive: [6] 95 % of control | [7] 97 % of control | dose: 400.0 mg/kg/injection, schedule: Q01DX001 (ip), vehicle: saline with Tween-80 89 % of control

CCNC(=O)c1ccccc1-c1ccccc1C(=O)NCC
inactive: dose: 100.0 mg/kg/injection, schedule: Q01DX001 (ip), vehicle: other 104 % of control

Cl[SiH](Cl)c1ccccc1
inactive: [1] 96 % of control | [2] 96 % of control | [3] 90 % of control

CCCCCCCCCCCCCCCc1cc(=O)n(-c2cccc([N+](=O)[O-])c2)n1C
inactive: [8] 96 % of control | [9] 94 % of control | dose: 400.0 mg/kg/injection, schedule: Q04DX003 (ip), vehicle: Klucel (hydroxypropylcellulose) (HPC) 92 % of control

CC(=O)NC1CCC(C(C)(C)C)CC1 (centres undefined)
inactive: [10] 102 % of control | [4] 93 % of control | dose: 200.0 mg/kg/injection, schedule: Q01DX009 (ip), vehicle: saline with Tween-80 108 % of control | [5] 90 % of control | [11] 103 % of control

CCCCC(C)NC1=C(Cl)C(=O)c2ccccc2C1=O (centres undefined)
inactive: dose: 25.0 mg/kg/injection, schedule: Q01DX009 (ip), vehicle: saline with Tween-80 101 % of control | dose: 50.0 mg/kg/injection, schedule: Q01DX009 (ip), vehicle: saline with Tween-80 93 % of control | [10] 87 % of control

CCCCCCCCCCCCCCC1=NCCN1
inactive: dose: 5.0 mg/kg/injection, schedule: Q01DX009 (ip), vehicle: saline 98 % of control | dose: 10.0 mg/kg/injection, schedule: Q01DX001 (ip), vehicle: saline 94 % of control | dose: 10.0 mg/kg/injection, schedule: Q01DX009 (ip), vehicle: saline 104 % of control | dose: 10.0 mg/kg/injection, schedule: Q04DX003 (ip), vehicle: saline 92 % of control | dose: 20.0 mg/kg/injection, schedule: Q01DX001 (ip), vehicle: saline 103 % of control | dose: 20.0 mg/kg/injection, schedule: Q01DX009 (ip), vehicle: saline 106 % of control | dose: 20.0 mg/kg/injection, schedule: Q04DX003 (ip), vehicle: saline 101 % of control | dose: 40.0 mg/kg/injection, schedule: Q01DX001 (ip), vehicle: saline 98 % of control | dose: 40.0 mg/kg/injection, schedule: Q04DX003 (ip), vehicle: saline 92 % of control

O=C1OCC/C1=C\C1CO1 (centres undefined)
inactive: dose: 100.0 mg/kg/injection, schedule: Q04DX002 (ip), vehicle: saline 97 % of control | dose: 200.0 mg/kg/injection, schedule: Q04DX002 (ip), vehicle: saline 95 % of control | dose: 400.0 mg/kg/injection, schedule: Q04DX002 (ip), vehicle: saline 101 % of control

Cc1ccc(N2CCNCC2)cc1Cl
inactive: dose: 12.5 mg/kg/injection, schedule: Q01DX009 (ip), vehicle: saline 100 % of control | dose: 25.0 mg/kg/injection, schedule: Q01DX009 (ip), vehicle: saline 91 % of control | dose: 50.0 mg/kg/injection, schedule: Q01DX009 (ip), vehicle: saline 102 % of control | dose: 50.0 mg/kg/injection, schedule: Q04DX003 (ip), vehicle: saline 102 % of control

N#C/C(=C\c1cccs1)c1ccccc1
inactive: dose: 50.0 mg/kg/injection, schedule: Q04DX003 (ip), vehicle: Klucel (hydroxypropylcellulose) (HPC) 110 % of control | [8] 98 % of control | [9] 104 % of control

CCCN(/C=C/C=C/C=[N+](CCC)CCC)CCC
inactive: dose: 0.03 mg/kg/injection, schedule: Q04DX003 (ip), vehicle: saline 100 % of control | dose: 0.05 mg/kg/injection, schedule: Q04DX003 (ip), vehicle: saline 109 % of control | dose: 0.1 mg/kg/injection, schedule: Q04DX003 (ip), vehicle: saline 98 % of control

Nc1cccc(CCCCc2ccccc2)c1
inactive: [6] 102 % of control | [7] 100 % of control

Cc1ccc(S(=O)(=O)N/N=C/C=C/C=N/NS(=O)(=O)c2ccc(C)cc2)cc1
inactive: [4] 97 % of control | [5] 103 % of control | [11] 94 % of control

O=C(CCc1ccccc1)NC(=S)Nc1cccc([N+](=O)[O-])c1
inactive: dose: 12.5 mg/kg/injection, schedule: Q01DX009 (ip), vehicle: saline with Tween-80 96 % of control and 98 % of control | dose: 50.0 mg/kg/injection, schedule: Q04DX003 (ip), vehicle: saline with Tween-80 96 % of control | [6] 93 % of control | dose: 100.0 mg/kg/injection, schedule: Q04DX002 (ip), vehicle: alcohol 104 % of control | dose: 100.0 mg/kg/injection, schedule: Q04DX003 (ip), vehicle: saline with Tween-80 91 % of control | [7] 104 % of control | dose: 200.0 mg/kg/injection, schedule: Q04DX002 (ip), vehicle: alcohol 93 % of control and 100 % of control | dose: 200.0 mg/kg/injection, schedule: Q04DX003 (ip), vehicle: saline with Tween-80 86 % of control | dose: 400.0 mg/kg/injection, schedule: Q04DX002 (ip), vehicle: alcohol 96 % of control

CC1=Nc2cc(C)c(C)cc2N=C(C)C1
inactive: dose: 100.0 mg/kg/injection, schedule: Q01DX009 (ip), vehicle: Klucel (hydroxypropylcellulose) (HPC) 96 % of control | [8] 93 % of control | dose: 200.0 mg/kg/injection, schedule: Q01DX009 (ip), vehicle: Klucel (hydroxypropylcellulose) (HPC) 98 % of control | [9] 97 % of control

Brc1cccc[n+]1-c1cccc(-c2cccc(-[n+]3ccccc3Br)c2)c1
inactive: dose: 9.38 mg/kg/injection, schedule: Q01DX001 (ip), vehicle: other 100 % of control | dose: 18.75 mg/kg/injection, schedule: Q01DX001 (ip), vehicle: other 101 % of control
